# Results published in US11129861B2, “Methods for treating inflammatory diseases” (OKCHUNDANG CO., LTD., priority 2017, dated 2021).
# Columns and labels:
# [1] = Body weight measurements, expectorant assay; format: in vivo, mice; settings: 250 mg/kg orally
# Experimental: One-hundred twenty one 6-week male SPF/VAF CrljOri: CD1[ICR] mice (OrientBio, Seungnam, Korea; body weight ranged in 29-32 g upon receipt) were prepared, and seven groups of 10 mice each were selected based on the body weights at 7 days after acclimatization based on the body weights (Average:34.75±1.32 g, ranged in 31.6-37.4 g), as follows. Animals husbandries were conducted as same as antitussive assay. All laboratory animals were treated according to the national regulations of the usage and welfare of laboratory animals, and approved by the Institutional Animal Care and Use Committee in Daegu Haany University (Gyeongsan, Gyeongbuk, Korea) [DHU2016-035, Apr. 22, 2016; ANNEX IV].
# AR, KOG and SKOG were orally administered as same as antitussive assay, once a day for 11 days before phenol red treatment. In addition, AM was also dissolved in distilled water as 25 mg/ml concentrations, and orally administered in a volume of 10 ml/kg (as equivalence to 250 mg/kg), once a day for 11 days before phenol red treatment. In intact vehicle control mice, distilled water 10 ml/kg was orally administered, instead of AR, KOG, SKOG or AM to provide same restrain stresses, in the present experiment.
# Changes of body weights and gains were measured as same methods described in Example 3.
# [2] = tested on: mice; assay: Expectorant assay: mucous secretions by phenol red (TLF OD, body surface redness); format: in vivo; settings: 250 mg/kg orally, 11 days
# Experimental: One-hundred twenty one 6-week male SPF/VAF CrljOri: […] Animals husbandries were conducted as same as antitussive assay. All laboratory animals were treated according to the national regulations of the usage and welfare of laboratory animals, and approved by the Institutional Animal Care and Use Committee in Daegu Haany University (Gyeongsan, Gyeongbuk, Korea) [[…] and SKOG were orally administered as same as antitussive assay, once a day for 11 days before phenol red treatment. In addition, AM was also dissolved in distilled water as 25 mg/ml concentrations, and orally administered in a volume of 10 ml/kg (as equivalence to 250 mg/kg), once a day for 11 days before phenol red treatment. In intact vehicle control mice, distilled water 10 ml/kg was orally administered, instead of AR, KOG, SKOG or AM to provide same restrain stresses, in the present experiment. Mucous secretions were measured by single intraperitoneal injection of 5% phenol red (Junsei Chemical Co. […] After ultrasonic for 15 min using ultrasonicator (Model 5210, Branson Ultrasonics, Danbury, Conn., USA), 1 ml NaHCO3 solution (5%, w/v) add to the normal saline, and optical density of these prepared trachea lavage fluid (TLF) were measured at 546 nm using a microplate reader (Model Sunrise, Tecan, Männedorf, Switzerland) as described previously with some modifications.
# [3] = tested on: mice; assay: Expectorant assay: secondary bronchus histopathology; format: in vivo; settings: 250 mg/kg orally, 11 days; compared with intact vehicle control
# Experimental: AR, KOG and SKOG were orally administered as same as antitussive assay, once a day for 11 days before phenol red treatment. In addition, AM was also dissolved in distilled water as 25 mg/ml concentrations, and orally administered in a volume of 10 ml/kg (as equivalence to 250 mg/kg), once a day for 11 days before phenol red treatment. In intact vehicle control mice, distilled water 10 ml/kg was orally administered, instead of AR, KOG, SKOG or AM to provide same restrain stresses, in the present experiment. Simultaneously, some parts of individual lung (left lateral lobes) were sampled at trachea excisions, and fixed in 10% NBF, and crossly trimmed. Then embedded in paraffin, sectioned (3˜4 μm) and stained with H&E for general histopathology or PAS (periodic acid schiff) for mucous producing cells, and after that the histopathological profiles of each sample were observed under light microscope. […] The histopathologist was blinds to group distribution when this analysis was made, and at least five repeated measurements in same histological specimens prepared were considered to calculate each mean histomorphometrical value, whenever possible, in this histopathological evaluation.
# [4] = Body weight measurements, anti-inflammatory assay; format: in vivo, mice; settings: 1 mg/kg orally
# Experimental: (§1) One-hundred thirty two 6-week male SPF/VAF CrljOri:CD1 [ICR] mice (OrientBio, Seungnam, Korea; body weight ranged in 29-32 g upon receipt) were prepared, and eight groups of 10 mice each were selected based on the body weights at 7 days after acclimatization based on the body weights (intact control: 33.88±1.11 g, ranged in 31.8˜35.4 g; Xylene treated mice: 33.85±1.32 g, ranged in 31.1-36.6 g), as follows. Animals husbandries were conducted as same as antitussive and expectorant assays. All laboratory animals were treated according to the national regulations of the usage and welfare of laboratory animals, and approved by the Institutional Animal Care and Use Committee in Daegu Haany University (Gyeongsan, Gyeongbuk, Korea) [DHU2016-036, Apr. 22, 2016; ANNEX V].
# AR, KOG and SKOG were orally administered as same as antitussive and expectorant assays, once a day for 11 days before xylene topical applications. In addition, DEXA-water soluble granules were dissolved indistilled water as 1.5 mg/ml concentrations (0.1 mg/ml based on DEXA itself), and also orally administered in a volume of 10 ml/kg (as equivalence to 1 mg/kg based on DEXA itself), once a day for 11 days before xylene topical applications. In intact vehicle and xylene control mice, distilled water 10 ml/kg was orally administered, instead of AR, KOG, SKOG or DEXA to provide same restrain stresses, in the present experiment.
# Changes of body weights and gains were measured as same methods described in Example 3 and 4.
# [5] = tested on: xylene topically applied mice; assay: Anti-inflammatory assay: xylene-induced ear inflammation, ear weight and gross signs; format: in vivo; settings: 1 mg/kg orally, 11 days; compared with xylene control mice
# Experimental: as §1
# AR, KOG and SKOG were orally administered as same as antitussive and expectorant assays, once a day for 11 days before xylene topical applications. […]
# Two hours after topical application of xylene, circular sections of induced ear were taken using a cork borer with a 7-mm diameter and weighed as absolute wet-weights, and then the relative weights (% of bodyweights) of the ears were calculated to reduce the differences from individual body weights, as follow Equation [2], in the current experiment. […]
# [6] = tested on: xylene topically applied mice; assay: Anti-inflammatory assay: ear histopathology; format: in vivo; settings: 1 mg/kg orally, 11 days; compared with xylene control mice
# Experimental: Acute inflammations were induced by single topical application of 0.03 ml of xylene (Duksan Pure Chemical Co. Ltd., Ansan, Korea) to the anterior surface of the right ear at 1 hour after last 11th test substance administration, as described previously with some modifications. Equal volume of saline was topically applied in intact vehicle mouse ears, instead of xylene, in our experiment.
# After ear weight measurement, individual ear samples were fixed in 10% NBF, and crossly trimmed. Then embedded in paraffin, sectioned (3˜4 μm) and stained with Hematoxylin and eosin (H&E) for general histopathology or toluidine blue for mast cells, and after that the histopathological profiles of each sample were observed under light microscope. To more detail changes, mean total, epidermis and dermis thicknesses of the ear anterior surface, numbers of infiltrated inflammatory cells and mast cells on the dermis of ear (cells/mm^2), collagen occupied region percentages on the dermis (%/mm2) were analyzed using a computer assisted image analysis program, according to previously established methods, respectively. The histopathologist was blinds to group distribution when this analysis was made, and at least five repeated measurements in same histological specimens prepared were considered to calculate each mean histomorphometrical value, whenever possible, in this histopathological evaluation.
# [7] = compared with intact vehicle control
# [8] = 11 days, xylene topically applied mice
compound,measurement,setting,value
"Nc1c(Br)cc(Br)cc1CN[C@H]1CC[C@H](O)CC1 [AM, ambroxol]",Body weight gains (g) [B − A],"[1]; 11 days, expectorant assay",1.99 ± 0.73 g
same,Body weights (g) at test material administration First [A],"[1]; 11 days, expectorant assay",29.23 ± 1.16 g
same,Body weights (g) at test material administration Last [B],"[1]; 11 days, expectorant assay",31.22 ± 1.65 g
same,"body weight gains during 11 days, change",[1]; [7],6.42%
same,body redness (body surface gross findings),"[2]; 30 min after intraperitoneal injection of phenol red, vs intact control",dramatic increases of body redness
same,"TLF OD values, change",[2]; [7],33.95%
same,"Mean numbers of secondary bronchus epithelial PAS positive mucous producing cells, change",[3],231.58%
same,"Mean thicknesses of secondary bronchus mucosa, change",[3],41.69%
"C[C@@H]1C[C@H]2[C@@H]3CCC4=CC(=O)C=C[C@]4(C)[C@@]3(F)[C@@H](O)C[C@]2(C)[C@@]1(O)C(=O)CO [DEXA, dexamethasone]","body weight gains during 11 days, change","[4]; 11 days, compared with xylene control mice",−145.10%
same,Body weight gains (g) [B − A],[4]; [8],−0.92 ± 0.76^ab g
same,Body weights (g) at test material administration First [A],[4]; [8],28.72 ± 1.10 g
same,Body weights (g) at test material administration Last [B],[4]; [8],27.80 ± 1.66^ab g
same,body weights during administration period,"[4]; from 2 days after initial administration, compared with intact vehicle and xylene control mice",significant (p<0.01 or p<0.05) decreases of body weights
same,"absolute ear weights, change",[5],−48.52%
same,"relative ear weights, change",[5],−42.61%
same,"Mean ear dermis thicknesses, change",[6],−60.02%
same,"Mean ear epidermis thicknesses, change",[6],−6.35%
same,"Mean numbers of infiltrated inflammatory cells on the ear dermis, change",[6],−93.13%
same,"Mean numbers of infiltrated mast cells on the ear dermis, change",[6],647.56%
same,"Mean percentages of collagen occupied regions on the ear dermis, change",[6],189.63%
same,"Mean total ear thicknesses, change",[6],−62.39%
